Laboratory results as given in patent publication US9708278B2, “Substituted 4-benzyl-3,4-dihydro-2H-benzo[B][1,4]oxazine-2-carboxamide analogs as positive allosteric modulators of muscarinic acetycholine receptor M1” (Vanderbilt University, priority 2013, dated 2017).

biological target: T1, mAChR M1 (UniProt P08482); experiment: mAChR M1 cell-based functional assay (calcium mobilization, PAM mode); conditions: positive allosteric modulator activity: concentration-dependent increase in the EC20 acetylcholine response; calcium flux in CHO-K1 cells stably expressing mAChR M1
T1 sequence (P08482 1-460): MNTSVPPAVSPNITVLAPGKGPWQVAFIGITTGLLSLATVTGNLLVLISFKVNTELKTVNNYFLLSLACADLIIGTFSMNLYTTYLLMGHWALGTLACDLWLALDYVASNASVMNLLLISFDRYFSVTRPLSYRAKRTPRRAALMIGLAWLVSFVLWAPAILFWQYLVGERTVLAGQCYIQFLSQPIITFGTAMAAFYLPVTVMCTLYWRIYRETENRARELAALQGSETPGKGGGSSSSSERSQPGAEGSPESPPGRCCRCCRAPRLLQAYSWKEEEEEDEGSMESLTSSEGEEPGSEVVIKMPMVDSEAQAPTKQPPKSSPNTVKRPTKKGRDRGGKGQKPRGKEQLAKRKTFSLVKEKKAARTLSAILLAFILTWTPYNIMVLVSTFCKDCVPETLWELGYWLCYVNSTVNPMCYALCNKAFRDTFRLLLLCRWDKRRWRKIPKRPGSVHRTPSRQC
Excerpt: The calcium mobilization assay was also used to determine “efficacy”.
N-Substituted 3,4-dihydro-benzo[b][1,4]oxazine-2-carboxamide analogs were synthesized as described above. […] The compound number corresponds to the compound numbers used in Table I.

SMILES | EC50
O=C(Nc1ccccc1F)C1CN(Cc2ccc(-n3cccn3)cc2)c2ccccc2O1 (stereo not drawn) [Compound B55] | ≥ 10 µM

same assay, conditions: positive allosteric modulator activity: concentration-dependent increase in the EC20 acetylcholine response; calcium flux in CHO-K1 cells stably expressing mAChR M1; read-out: EC50

EC50 | SMILES
≥ 10 µM | COCC(C)NC(=O)C1CN(Cc2ccc(-n3cccn3)cc2)c2ccccc2O1 (stereo not drawn) [Compound B43]
≥ 10 µM | O=C(Nc1ccccn1)C1CN(Cc2ccc(-n3cccn3)cc2)c2ccccc2O1 (stereo not drawn) [Compound B15]
> 30 µM | O=C(NCCOc1ccccc1F)C1CN(Cc2ccc(-n3cccn3)cc2)c2ccccc2O1 (stereo not drawn) [Compound B38]
4.82 µM | O=C(NCc1ccccn1)C1CN(Cc2ccc(-n3cccn3)cc2)c2ccccc2O1 (stereo not drawn) [Compound B12]
> 30 µM | O=C(Nc1ccn[nH]1)C1CN(Cc2ccc(-n3cccn3)cc2)c2ccccc2O1 (stereo not drawn) [Compound B47]
≥ 10 µM | O=C(NC1CC1)C1CN(Cc2ccc(-n3cccn3)cc2)c2ccccc2O1 (stereo not drawn) [Compound B17]
> 30 µM | Cn1cc(-c2ccc(CN3CC(C(=O)N[C@H]4CCCC[C@@H]4O)Oc4ccccc43)cc2)cn1 (stereo partly drawn) [Compound B7]
≥ 10 µM | O=C(NC1CCOC1)C1CN(Cc2ccc(-n3cccn3)cc2)c2ccccc2O1 (stereo not drawn) [Compound B23]
7.65 µM | COCCNC(=O)C1CN(Cc2ccc(-n3cccn3)cc2)c2ccccc2O1 (stereo not drawn) [Compound B51]
> 30 µM | O=C(Nc1ccccc1)C1CN(Cc2ccc(-n3cccn3)cc2)c2ccccc2O1 (stereo not drawn) [Compound B31]
≥ 10 µM | O=C(NCC(F)F)C1CN(Cc2ccc(-n3cccn3)cc2)c2ccccc2O1 (stereo not drawn) [Compound B52]
3.3 µM | NC(=O)C1CN(Cc2ccc(-n3cccn3)cc2)c2ccccc2O1 (stereo not drawn) [Compound B32]
> 30 µM | O=C(NCCOc1ccc(F)cc1)C1CN(Cc2ccc(-n3cccn3)cc2)c2ccccc2O1 (stereo not drawn) [Compound B40]
≥ 10 µM | O=C(NC1CCCOC1)C1CN(Cc2ccc(-n3cccn3)cc2)c2ccccc2O1 (stereo not drawn) [Compound B37]
≥ 10 µM | O=C(NC1CCCCC1)C1CN(Cc2ccc(-n3cccn3)cc2)c2ccccc2O1 (stereo not drawn) [Compound B18]
4.7 µM | O=C(N[C@H]1CCCC[C@@H]1O)C1CN(Cc2ccc(C(F)(F)F)nc2)c2ccccc2O1 (stereo partly drawn) [Compound B42]
> 30 µM | COc1ccc(OCCNC(=O)C2CN(Cc3ccc(-n4cccn4)cc3)c3ccccc3O2)cc1 (stereo not drawn) [Compound B25]
3.6 µM | O=C(N[C@H]1CCCC[C@@H]1O)C1CN(Cc2ccc(C(F)(F)F)nc2)c2cccc(F)c2O1 (stereo partly drawn) [Compound B57, 8-fluoro-N-((1S,2S)-2-hydroxycyclohexyl)-4-((6-(trifluoromethyl)pyridin-3-yl)methyl)-3,4-dihydro-2H-benzo[b][1,4]oxazine-2-carboxamide]
4.66 µM | C[C@@H](CO)NC(=O)C1CN(Cc2ccc(-n3cccn3)cc2)c2ccccc2O1 (stereo partly drawn) [Compound B35]

EC50 | SMILES
> 30 µM | Cc1ccc(NC(=O)C2CN(Cc3ccc(-n4cccn4)cc3)c3ccccc3O2)c(O)c1 (stereo not drawn) [Compound B53]
> 30 µM | CC1(NC(=O)C2CN(Cc3ccc(-n4cccn4)cc3)c3ccccc3O2)COC1 (stereo not drawn) [Compound B34]
≥ 10 µM | CC(C)NC(=O)C1CN(Cc2ccc(-n3cccn3)cc2)c2ccccc2O1 (stereo not drawn) [Compound B22]
2.07 µM | CC(C)C[C@@H](CO)NC(=O)[C@H]1CN(Cc2ccc(-n3cccn3)cc2)c2ccccc2O1 (single isomer, unassigned) [Compound B20]
7.66 µM | O=C(NC1CCC1)C1CN(Cc2ccc(-n3cccn3)cc2)c2ccccc2O1 (stereo not drawn) [Compound B27]
≥ 10 µM | O=C(NCCCN1CCOCC1)C1CN(Cc2ccc(-n3cccn3)cc2)c2ccccc2O1 (stereo not drawn) [Compound B24]
≥ 10 µM | Cn1cc2c(-c3cc(F)c(CN4CC(C(=O)N[C@H]5CCCC[C@@H]5O)Oc5ccccc54)c(F)c3)cccc2n1 (stereo partly drawn) [Compound B6, 4-(2,6-difluoro-4-(2-methyl-2H-indazol-4-yl)benzyl)-N-((1S,2S)-2-hydroxycyclohexyl)-3,4-dihydro-2H-benzo[b][1,4]oxazine-2-carboxamide]
≥ 10 µM | O=C(NC1COC1)C1CN(Cc2ccc(-n3cccn3)cc2)c2ccccc2O1 (stereo not drawn) [Compound B3]
4.43 µM | O=C(NC1CCOCC1)C1CN(Cc2ccc(-n3cccn3)cc2)c2ccccc2O1 (stereo not drawn) [Compound B30]
≥ 10 µM | COc1ccc(CN2C[C@@H](C(=O)N[C@H]3CCCC[C@@H]3O)Oc3ccccc32)cc1 (single isomer, unassigned) [Compound B10]
7.38 µM | O=C(Nc1cccc2cn[nH]c12)C1CN(Cc2ccc(-n3cccn3)cc2)c2ccccc2O1 (stereo not drawn) [Compound B45]
0.302 µM | O=C(N[C@H]1CCCC[C@@H]1O)C1CN(Cc2ccc(-n3cccn3)cc2)c2ccccc2O1 (stereo partly drawn) [Compound B1, 4-(4-(1H-pyrazol-1-yl)benzyl)-N-((1S,2S)-2-hydroxycyclohexyl)-3,4-dihydro-2H-benzo[b][1,4]oxazine-2-carboxamide]
≥ 10 µM | Cc1ccccc1NC(=O)C1CN(Cc2ccc(-n3cccn3)cc2)c2ccccc2O1 (stereo not drawn) [Compound B56]
0.543 µM | O=C(Nc1ncccc1O)C1CN(Cc2ccc(-n3cccn3)cc2)c2ccccc2O1 (stereo not drawn) [Compound B2, 4-(4-(1H-pyrazol-1-yl)benzyl)-N-(3-hydroxypyridin-2-yl)-3,4-dihydro-2H-benzo[b][1,4]oxazine-2-carboxamide]
3.8 µM | CC(C)(O)CNC(=O)C1CN(Cc2ccc(-n3cccn3)cc2)c2ccccc2O1 (stereo not drawn) [Compound B36]
3.69 µM | CC(C)C[C@@H](CO)NC(=O)[C@@H]1CN(Cc2ccc(-n3cccn3)cc2)c2ccccc2O1 (single isomer, unassigned) [Compound B19]
0.199 µM | O=C(N[C@H]1CCCC[C@@H]1O)C1CN(Cc2ccc(-n3cccn3)cc2)c2ccccc2O1 (single isomer, unassigned) [Compound B41]
1.44 µM | COC(=O)CNC(=O)C1CN(Cc2ccc(-n3cccn3)cc2)c2ccccc2O1 (stereo not drawn) [Compound B13]
2.4 µM | COc1cccnc1NC(=O)C1CN(Cc2ccc(-n3cccn3)cc2)c2ccccc2O1 (stereo not drawn) [Compound B48]

EC50 | SMILES
≥ 10 µM | O=C(N[C@@H](CO)[C@H](O)c1ccccc1)C1CN(Cc2ccc(-n3cccn3)cc2)c2ccccc2O1 (stereo partly drawn) [Compound B44]
7.75 µM | COc1ccc(CN2C[C@H](C(=O)N[C@H]3CCCC[C@@H]3O)Oc3ccccc32)cc1 (single isomer, unassigned) [Compound B9]
2.28 µM | O=C(NCC(O)C(F)(F)F)C1CN(Cc2ccc(-n3cccn3)cc2)c2ccccc2O1 (stereo not drawn) [Compound B46]
> 30 µM | O=C(N[C@H]1CCCC[C@@H]1O)C1CN(Cc2c(F)cc(Br)cc2F)c2ccccc2O1 (stereo partly drawn) [Compound B4, 4-(4-bromo-2,6-difluorobenzyl)-N-((1S,2S)-2-hydroxycyclohexyl)-3,4-dihydro-2H-benzo[b][1,4]oxazine-2-carboxamide]
0.573 µM | O=C(N[C@H]1CCCC[C@@H]1O)C1CN(Cc2ccc(-n3cccn3)cc2)c2ccccc2O1 (single isomer, unassigned) [Compound B29]
1.15 µM | O=C(N[C@H]1CCC[C@@H]1O)C1CN(Cc2ccc(-n3cccn3)cc2)c2ccccc2O1 (stereo partly drawn) [Compound B54]
> 30 µM | O=C(NCC(F)(F)F)C1CN(Cc2ccc(-n3cccn3)cc2)c2ccccc2O1 (stereo not drawn) [Compound B26]
> 30 µM | COc1ccccc1OCCNC(=O)C1CN(Cc2ccc(-n3cccn3)cc2)c2ccccc2O1 (stereo not drawn) [Compound B39]
4.21 µM | O=C(N[C@H]1CCCC[C@@H]1O)C1CN(Cc2ccc(Cl)nc2)c2ccccc2O1 (stereo partly drawn) [Compound B8]
5.36 µM | CNC(=O)C1CN(Cc2ccc(-n3cccn3)cc2)c2ccccc2O1 (stereo not drawn) [Compound B21]
> 30 µM | CC(C)(CO)NC(=O)C1CN(Cc2ccc(-n3cccn3)cc2)c2ccccc2O1 (stereo not drawn) [Compound B16]
3.56 µM | CC(C)CNC(=O)C1CN(Cc2ccc(-n3cccn3)cc2)c2ccccc2O1 (stereo not drawn) [Compound B11]
2.57 µM | O=C(Nc1ncccc1F)C1CN(Cc2ccc(-n3cccn3)cc2)c2ccccc2O1 (stereo not drawn) [Compound B50]
≥ 10 µM | O=C(Nc1ncc(F)cc1F)C1CN(Cc2ccc(-n3cccn3)cc2)c2ccccc2O1 (stereo not drawn) [Compound B49]
≥ 10 µM | O=C(Nc1ccccc1O)C1CN(Cc2ccc(-n3cccn3)cc2)c2ccccc2O1 (stereo not drawn) [Compound B14]
≥ 10 µM | O=C(NC1CCCC1)C1CN(Cc2ccc(-n3cccn3)cc2)c2ccccc2O1 (stereo not drawn) [Compound B28]
≥ 10 µM | COc1ccc(CN2CC(C(=O)N[C@H]3CCCC[C@@H]3O)Oc3ccccc32)cc1 (stereo partly drawn) [Compound B5]
6.54 µM | O=C(NCCO)C1CN(Cc2ccc(-n3cccn3)cc2)c2ccccc2O1 (stereo not drawn) [Compound B33]
